Source: PubChem BioAssay (NCI)
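96-well plates; 48 h exposure; 5 concentrations. Endpoints by linear interpolation between flanking doses. Not reached: highest tested concentration assigned. The concentration for 50% growth inhibition is given as GI50. TGI: concentration producing complete growth inhibition.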

Assays:
Assay in all cases: DTP human tumour cell line panel, 48 h
A549 NSCLC = tested on: A549 NSCLC
SK-MEL-2 melanoma = tested on: SK-MEL-2 melanoma
RXF 393 renal = tested on: RXF 393 renal
SW-620 colon = tested on: SW-620 colon
OVCAR-4 ovarian = tested on: OVCAR-4 ovarian
OVCAR-3 ovarian = tested on: OVCAR-3 ovarian
UACC-62 melanoma = tested on: UACC-62 melanoma
HOP-92 NSCLC = tested on: HOP-92 NSCLC
MDA-MB-435 = tested on: MDA-MB-435
BT-549 breast = tested on: BT-549 breast

Compound | TGI (A549 NSCLC) | TGI (SK-MEL-2 melanoma) | TGI (RXF 393 renal) | TGI (SW-620 colon) | TGI (OVCAR-4 ovarian) | TGI (OVCAR-3 ovarian) | TGI (UACC-62 melanoma) | TGI (HOP-92 NSCLC) | TGI (MDA-MB-435) | GI50 (A549 NSCLC) | GI50 (BT-549 breast) | TGI (BT-549 breast) | GI50 (SK-MEL-2 melanoma) | GI50 (RXF 393 renal) | GI50 (SW-620 colon) | GI50 (OVCAR-4 ovarian) | GI50 (OVCAR-3 ovarian) | GI50 (UACC-62 melanoma) | GI50 (MDA-MB-435) | GI50 (HOP-92 NSCLC)
COc1cc2c(cc1C)n(O)c(C)c(C(=O)C/C(=N/NC(=O)C[N+](C)(C)C)C(=O)Nc1cccc(Cl)c1C)[n+]2=O | > 100 µM | > 100 µM | > 100 µM | > 100 µM | > 100 µM | > 100 µM | > 100 µM | > 100 µM | – | – | – | – | – | – | – | – | – | – | – | –
COc1ccc2c(c1)CC[C@@H]1C2CC[C@]2(C)C(=O)NC(=O)CC12 (stereo partly drawn) | > 100 µM | > 100 µM | – | > 100 µM | – | > 100 µM | > 100 µM | > 100 µM | – | – | – | – | – | – | – | – | – | – | – | –
Cc1cc(C)c(C(=O)OC(c2ccccc2)C(c2ccccc2)N2CCOCC2)c(C)c1 (stereo not drawn) | > 100 µM | > 100 µM | > 100 µM | > 100 µM | – | > 100 µM | > 100 µM | – | – | – | – | – | – | – | – | – | – | – | – | –
O=[N+]([O-])c1ccc(Cl)c(C2SCc3nc4ccccc4n32)c1 (stereo not drawn) | > 100 µM | > 100 µM | > 100 µM | 88.3 µM | – | > 100 µM | > 100 µM | 45.3 µM | – | – | – | – | – | – | – | – | – | – | – | –
CCC1(CN(C)C)CC/C(=C\c2ccc3c(c2)OCO3)C1=O (stereo not drawn) | > 100 µM | > 100 µM | > 100 µM | > 100 µM | > 100 µM | > 100 µM | > 100 µM | > 100 µM | – | – | – | – | – | – | – | – | – | – | – | –
CCOC(=O)C(C)(C)Oc1ccc2c(-c3ccc(Cl)cc3)cc(=O)oc2c1 | > 100 µM | > 100 µM | > 100 µM | > 100 µM | > 100 µM | > 100 µM | > 100 µM | – | – | – | – | – | – | – | – | – | – | – | – | –
CCOC(=O)C(C[Si](C)(C)C)P(=O)(OCC)OCC (stereo not drawn) | > 100 µM | – | > 100 µM | > 100 µM | > 100 µM | > 100 µM | > 100 µM | > 100 µM | – | – | – | – | – | – | – | – | – | – | – | –
O=C1c2cc(CCl)sc2C(=O)c2ccsc21 | 0.417 µM | 0.42 µM | 0.883 µM | 0.387 µM | 0.336 µM | 0.52 µM | 0.319 µM | 1.47 µM | 0.0339 µM | – | – | – | – | – | – | – | – | – | – | –
C[Si](C)(C)/C=C/CN1C(=O)CCC1O (stereo not drawn) | > 100 µM | > 100 µM | > 100 µM | > 100 µM | > 100 µM | > 100 µM | > 100 µM | > 100 µM | – | – | – | – | – | – | – | – | – | – | – | –
O=Nc1c(O)ccc2ccccc12 | 17.5 µM | 4.36 µM | 19.5 µM | 8.04 µM | 2.57 µM | 9.15 µM | 3.83 µM | – | 3.38 µM | 4.9 µM | 12.2 µM | 24.9 µM | 2.12 µM | 6.54 µM | 2.46 µM | 1.29 µM | 2.55 µM | 1.86 µM | 1.88 µM | –
CC/C=C\CCC/C=C1/C(=O)C=C[C@@H]1C/C=C\CCCC(=O)O | 32.7 µM | 18.3 µM | 10.3 µM | 18 µM | 22.1 µM | 10.9 µM | 4.93 µM | 27 µM | 4.99 µM | 12.8 µM | – | – | 4.82 µM | 3.68 µM | 4.46 µM | 6.93 µM | 3.36 µM | 2.22 µM | 2.01 µM | 13.2 µM
COc1ccc(O)c2c1C(=O)CCCC2=O | > 100 µM | > 100 µM | – | > 100 µM | > 100 µM | > 100 µM | > 100 µM | – | – | – | – | – | – | – | – | – | – | – | – | –
CC(=O)Nc1ccc(-c2nnc(SCC(=O)Nc3ccc(C)cc3)o2)cc1 | > 100 µM | 34.4 µM | 33.2 µM | 33.3 µM | 32.6 µM | 37.2 µM | 30.7 µM | 33.4 µM | – | – | – | – | – | – | – | – | – | – | – | –
O=C(/C=C/c1cccc(Cl)c1)c1ccc(Cl)cc1Cl | 29.7 µM | 33 µM | – | 38.7 µM | 41.5 µM | 17.3 µM | 29 µM | 16.2 µM | 16.8 µM | 10.4 µM | 8.94 µM | 20.7 µM | 11.8 µM | – | 2.36 µM | 13.4 µM | 8.54 µM | 11.1 µM | 8.31 µM | 6.17 µM
COc1ccc(/C=C\c2cc(OC)c(OC)c(OC)c2)c(NS(=O)(=O)c2ccc(C)cc2)c1O | > 100 µM | > 100 µM | – | > 100 µM | > 100 µM | 1.65 µM | > 100 µM | 27.5 µM | 0.0621 µM | 0.0473 µM | 0.035 µM | 3.04 µM | 1.45 µM | – | 0.0447 µM | 0.233 µM | 0.03 µM | 0.0428 µM | 0.0208 µM | 0.102 µM
Cn1c(=O)c2[nH]c(COc3ccc(C(C)(C)C)cc3)nc2n(C)c1=O | > 100 µM | – | > 100 µM | > 100 µM | – | 33.6 µM | 72.4 µM | 30.6 µM | 35.4 µM | 18.9 µM | – | – | – | 57 µM | 27 µM | – | 12.3 µM | 5.56 µM | 4.09 µM | 0.428 µM
O=c1cccccc1NCCCCNc1cccccc1=O | > 100 µM | > 100 µM | – | > 100 µM | > 100 µM | > 100 µM | > 100 µM | – | – | – | – | – | – | – | – | – | – | – | – | –
CC[C@@H]1OC2(C)CC(S(=O)(=O)c3ccccc3)CC1O2 (stereo partly drawn) | > 100 µM | > 100 µM | > 100 µM | > 100 µM | > 100 µM | > 100 µM | > 100 µM | > 100 µM | – | – | – | – | – | – | – | – | – | – | – | –
COc1cc(C2C(C(=O)Nc3ccccc3)=C(C)NC(C)=C2C(=O)Nc2ccccc2)ccc1O | > 100 µM | 76.8 µM | > 100 µM | > 100 µM | > 100 µM | 55.9 µM | – | 88.5 µM | – | – | – | – | – | – | – | – | – | – | – | –
O=c1c([Se]c2coc3ccccc3c2=O)coc2ccccc12 | 20.9 µM | 32.4 µM | 29.5 µM | 34.3 µM | 32.6 µM | 32 µM | 30.9 µM | 31.7 µM | – | – | – | – | – | – | – | – | – | – | – | –
O=C(NNS(=O)(=O)c1cc(C(F)(F)F)cc(C(F)(F)F)c1)c1cnn(-c2ccc(Cl)cc2)c1C(F)(F)F | 33.2 µM | 34.7 µM | – | 38.7 µM | > 100 µM | 33.4 µM | 30 µM | 31.8 µM | 33.2 µM | 13.7 µM | 14.5 µM | 28 µM | 18.5 µM | – | 17.7 µM | 38.3 µM | 15.3 µM | 14.5 µM | 17 µM | 14.8 µM
